Experimental data reported in patent publication US20120035214A1, “RENIN INHIBITORS” (Merck Canada Inc., priority 2009, published 2012).

Experiments:
Human recombinant renin = target: T1, Human recombinant renin (Homo sapiens, UniProt P00797); assay: Inhibition of human recombinant renin (QFRET, buffer); assay type: biochemical; settings: buffer: 50 mM MOPS pH 7.4, 100 mM NaCl, 0.002% Tween 20; 37° C., 3 hours
T1 construct: purchased Proteos
T1 sequence (P00797 67-406): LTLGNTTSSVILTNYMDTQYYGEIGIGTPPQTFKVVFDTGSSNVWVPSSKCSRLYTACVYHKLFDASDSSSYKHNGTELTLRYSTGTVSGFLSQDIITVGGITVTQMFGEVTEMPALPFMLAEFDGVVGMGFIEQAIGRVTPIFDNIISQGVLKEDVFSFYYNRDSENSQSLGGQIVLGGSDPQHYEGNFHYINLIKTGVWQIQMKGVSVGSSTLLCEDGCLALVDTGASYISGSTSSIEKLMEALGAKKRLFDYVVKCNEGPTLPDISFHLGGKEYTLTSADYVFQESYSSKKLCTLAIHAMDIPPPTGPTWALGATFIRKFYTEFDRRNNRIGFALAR
Description: Inhibition of Human Recombinant Renin
Human recombinant renin (Proteos) in 50 mM MOPS pH 7.4, 100 mM NaCl, 0.002% Tween 20 at a final concentration of […] is incubated with inhibitors from a 50 fold concentrated DMSO solution and 6 μM of an internally-quenched fluorescent peptide: DNP-[…]D,L-Amp (SEQ ID NO: 1); Paschalidou K. et al., Biochem J., 2004, 382, 1031). The reactions take place in a Costar 384 well black plate (#3573) at 37° C. for 3 hours. Fluorescence is measured at times 0 and 3 hours with a SpectraMax Gemini EM reader set at an excitation wavelength of 328 nm and at an emission wavelength of 388 nm. Background fluorescence at t=0 is subtracted from the measurement at t=3 hours. Inhibitory activity of the compounds is expressed as IC50.

[1] = target: T2, recombinant renin in human plasma (Homo sapiens, UniProt P00797); assay: Inhibition of renin in human plasma (QFRET, plasma); assay type: biochemical; settings: human EDTA plasma with 1 nM recombinant renin added; 37° C., 1 hour
T2 construct: purchased Proteos
T2 sequence (P00797 67-406): T1 sequence (P00797 67-406)
Description: Inhibition of Renin in Human Plasma
Human EDTA-collected plasma is rapidly thawed in warm water and centrifuged at 2900 g for 15 minutes at 4° C. The supernatant is collected and recombinant renin (Proteos) is added at a final concentration of 1 nM. The plasma is transferred to a Costar black 384 well plate (#3573). Renin inhibitors are added from a 17.5 fold concentrated DMSO solution and pre-incubated at 37° C. for 10 minutes. The internally-quench fluorescent peptide QXL520™-[…](5-FAM) (Anaspec), SEQ ID NO: 2, is diluted in 3M Tris pH 7.2, 200 mM EDTA and added to the plasma. The final concentrations are: 6 μM substrate, 342 mM Tris, 23 mM EDTA. The plate is incubated at 37° C. for 1 hour. The plate is read in a SpectraMax Gemini EM reader set at an excitation wavelength of 490 nm and an emission wavelength of 520 nm at times 0 and 1 hour. Background fluorescence at t=0 is subtracted from the measurement at t=1 hour. Inhibitory activity of the compounds is expressed as IC50.

SMILES	IC50 (Human recombinant renin)	IC50 [1]
CC(=O)NCCc1ccc(C(F)(F)F)cc1-c1ccc([C@H]2CNCC[C@@H]2c2ccc(F)c(F)c2)c(Cl)c1 (racemic) [Structure 46]	0.78 nM	280 nM
CC(=O)NCCc1cc(C(F)(F)F)ccc1-c1ccc([C@H]2CNCC[C@@H]2c2ccc(F)c(F)c2)c(Cl)c1 (racemic) [Structure 47]	0.59 nM	140 nM
COCCCc1ccccc1-c1ccc([C@H]2CNCC[C@]2(OCC(O)CO)c2ccc(F)c(F)c2)c(C)c1 (mixture of isomers) [Structure 48]	16 nM	2020 nM
CC(=O)NCc1ccccc1-c1ccc([C@H]2CNCC[C@@H]2c2ccc(F)c(F)c2)cc1 (racemic) [Structure 49]	1710 nM	9040 nM
COCCCc1ccccc1-c1cc(C)c([C@H]2CNCC[C@@H]2c2ccc(Cl)c(F)c2)cn1 (racemic) [Structure 50]	1.5 nM	230 nM
CC(=O)NCCc1ccccc1-c1ccc([C@H]2CNCC[C@]2(O)c2ccc(F)c(F)c2)c(C)c1 (racemic) [Structure 51]	0.5 nM	5 nM
COC[C@H](C)COCc1ccc([C@@]2(O)CCNC[C@@H]2c2ccc(-c3ccccc3CCNC(C)=O)cc2C)cc1 (racemic) [Structure 54]	0.13 nM	1.2 nM
COCC(F)(F)COCc1ccc([C@@]2(O)CCNC[C@@H]2c2ccc(-c3ccccc3CCNC(C)=O)cc2C)cc1 (racemic) [Structure 55]	0.17 nM	0.95 nM
CC(=O)NCCc1ccccc1-c1ccc([C@H]2CNCC[C@]2(O)c2ccc(COCCOC(C)C)cc2)c(C)c1 (racemic) [Structure 56]	0.26 nM	3.8 nM
COCCCc1ccccc1-c1ccc([C@H]2CNCC[C@@H]2c2ccn(C)c(=O)c2)c(Cl)c1 (racemic) [Structure 57]	6.4 nM	80 nM
COc1cc(CCNC(C)=O)c(-c2ccc([C@H]3CNCC[C@@H]3c3ccn(C)c(=O)c3)c(Cl)c2)cc1OC (racemic) [Structure 66]	1320 nM	4900 nM
O[C@]1(c2ccc(F)c(F)c2)CCNC[C@@H]1c1cc(-c2ccc(F)cc2Br)no1 [Structure 67]	400 nM	8650 nM
O[C@]1(c2ccc(F)c(F)c2)CCNC[C@@H]1c1cc(-c2c(Cl)cccc2Cl)no1 [Structure 68]	1210 nM	> 9500 nM
O[C@]1(c2ccc(F)c(F)c2)CCNC[C@@H]1c1onc(-c2c(Cl)cccc2Cl)c1Br [Structure 70]	3.7 nM	130 nM
O[C@]1(c2ccc(F)c(F)c2)CCNC[C@@H]1c1onc(-c2cccc(Cl)c2Cl)c1Br [Structure 71]	0.21 nM	7.8 nM
O[C@]1(c2ccc(F)c(F)c2)CCNC[C@@H]1c1onc(-c2ccccc2Cl)c1Br [Structure 72]	1.1 nM	27 nM

SMILES	IC50 (Human recombinant renin)	IC50 [1]
Cc1cccc(-c2noc([C@H]3CNCC[C@]3(O)c3ccc(F)c(F)c3)c2Br)c1C [Structure 73]	0.47 nM	21 nM
Cc1ccc(Cl)c(-c2noc([C@H]3CNCC[C@]3(O)c3ccc(F)c(F)c3)c2Br)c1F [Structure 74]	4.9 nM	430 nM
O[C@]1(c2ccc(F)c(F)c2)CCNC[C@@H]1c1onc(-c2cccc3ccccc23)c1Br [Structure 75]	0.064 nM	4.7 nM
CC(=O)NCCc1ccccc1-c1noc([C@H]2CNCC[C@]2(O)c2ccc(F)c(F)c2)c1Br [Structure 76]	0.36 nM	1.6 nM
Fc1ccc([C@@]2(F)CCNC[C@@H]2c2onc(-c3cccc(Cl)c3Cl)c2Br)cc1F [Structure 77]	0.25 nM	7.9 nM
CC(O)c1c([C@H]2CNCC[C@]2(O)c2ccc(F)c(F)c2)noc1-c1c(Cl)cccc1Cl (stereo partly shown) [Structure 78]	1.8 nM	24 nM
O[C@]1(c2ccc(F)c(F)c2)CCNC[C@@H]1c1cc(-c2c(Cl)cccc2Cl)on1 [Structure 79]	1330 nM	> 28000 nM
CC(=O)NCCc1ccccc1-c1onc([C@H]2CNCC[C@]2(O)c2ccc(F)c(F)c2)c1Br [Structure 80]	0.23 nM	0.6 nM
CC(=O)NCCc1ccccc1-c1onc([C@H]2CNCC[C@]2(F)c2ccc(F)c(F)c2)c1Br [Structure 81]	0.053 nM	0.44 nM
CO[C@]1(c2ccc(F)c(F)c2)CCNC[C@@H]1c1noc(-c2ccccc2CCNC(C)=O)c1Br [Structure 82]	0.16 nM	1.2 nM
CC(=O)NCCc1ccccc1-c1onc([C@H]2CNCC[C@]2(O)c2ccc(F)c(F)c2)c1C(C)=O [Structure 83]	2.8 nM	4.2 nM
COC(=O)NCCc1ccccc1-c1onc([C@H]2CNCC[C@]2(O)c2ccc(F)c(F)c2)c1C(C)=O [Structure 84]	10 nM	93 nM
CC(=O)NCCc1ccccc1-c1onc([C@H]2CNCC[C@]2(O)c2ccc(F)c(F)c2)c1C(C)O (stereo partly shown) [Structure 85]	4.3 nM	4.5 nM
CC(=O)NCCc1cc(F)ccc1-c1onc([C@H]2CNCC[C@]2(O)c2ccc(F)c(F)c2)c1Br [Structure 86]	0.14 nM	0.68 nM
CC(=O)NCCc1c(F)cccc1-c1onc([C@H]2CNCC[C@]2(O)c2ccc(F)c(F)c2)c1Br [Structure 87]	0.16 nM	0.62 nM

The next lines start with the values.

IC50 (Human recombinant renin)	IC50 [1]	SMILES
150 nM	1630 nM	COCCCc1ccccc1-c1ccc([C@H]2CNCC[C@@H]2c2ccc(N)nc2)c(Cl)c1 (racemic) [Structure 52]
12 nM	250 nM	COCCCc1ccccc1-c1ccc([C@H]2CNCC[C@@H]2c2cccnc2N)c(Cl)c1 (racemic) [Structure 53]
3.6 nM	7.1 nM	CC(=O)NCCc1ccccc1-c1ccc([C@H]2CNCC[C@@H]2c2ccn(C)c(=O)c2)c(Cl)c1 (racemic) [Structure 58]
6.2 nM	7.9 nM	CCC(=O)NCCc1ccccc1-c1ccc([C@H]2CNCC[C@@H]2c2ccn(C)c(=O)c2)c(Cl)c1 (racemic) [Structure 61]
4.2 nM	4.9 nM	COC(=O)NCCc1ccccc1-c1ccc([C@H]2CNCC[C@@H]2c2ccn(C)c(=O)c2)c(Cl)c1 (racemic) [Structure 62]
16 nM	24 nM	CCOC(=O)NCCc1ccccc1-c1ccc([C@H]2CNCC[C@@H]2c2ccn(C)c(=O)c2)c(Cl)c1 (racemic) [Structure 63]
110 nM	77 nM	COCC(=O)NCCc1ccccc1-c1ccc([C@H]2CNCC[C@@H]2c2ccn(C)c(=O)c2)c(Cl)c1 (racemic) [Structure 64]
6.5 nM	6 nM	CC(=O)NCCc1ccc(F)cc1-c1ccc([C@H]2CNCC[C@@H]2c2ccn(C)c(=O)c2)c(Cl)c1 (racemic) [Structure 65]
6.1 nM	28 nM	CC(=O)NCCc1ccccc1-c1ccc([C@H]2CNCC[C@@H]2c2cccnc2)c(C)c1 [Structure 4]
1410 nM	7280 nM	CC(=O)NCCc1ccccc1-c1ccc([C@@H]2CNCC[C@H]2c2cccnc2)c(C)c1 [Structure 5]
1.5 nM	4.1 nM	CC(=O)NCCc1ccccc1-c1ccc([C@H]2CNCC[C@@H]2c2cccnc2)c(Cl)c1 [Structure 13]
2630 nM	> 9500 nM	CC(=O)NCCc1ccccc1-c1ccc([C@@H]2CNCC[C@H]2c2cccnc2)c(Cl)c1 [Structure 14]
0.59 nM	16 nM	CC(=O)NCCc1ccccc1-c1ccc([C@H]2CNCC[C@@H]2c2cc(F)cc(F)c2)c(C)c1 [Structure 16]
530 nM	11600 nM	CC(=O)NCCc1ccccc1-c1ccc([C@@H]2CNCC[C@H]2c2cc(F)cc(F)c2)c(C)c1 [Structure 17]
2.1 nM	3.4 nM	CC(=O)NCCc1ccccc1-c1ccc([C@H]2CNCC[C@@H]2c2ccn(C)c(=O)c2)c(Cl)c1 [Structure 59]
710 nM	1350 nM	CC(=O)NCCc1ccccc1-c1ccc([C@@H]2CNCC[C@H]2c2ccn(C)c(=O)c2)c(Cl)c1 [Structure 60]
